Measurements published in ChEMBL document CHEMBL1130807, “The synthesis of symmetrical and unsymmetrical P1/P1' cyclic ureas as HIV protease inhibitors” (Bioorg Med Chem Lett, 1998).
Converted amounts (≈) assume the structure as drawn.

How the values were obtained:
[1] = molecular target: Human immunodeficiency virus type 1 protease (Human immunodeficiency virus 1, UniProt Q72874); assay: Inhibition of human immunodeficiency virus (HIV) protease isolated enzyme assay
[2] = Antiviral activity was evaluated by whole cell based assay; assay type: functional
[3] = tested on: Human immunodeficiency virus 1; assay: Compound was evaluated for potency against HIV single mutant I84V strain; assay type: functional
[4] = tested on: Human immunodeficiency virus 1; assay: Compound was evaluated for potency against […] HIV WT strain; assay type: functional
[5] = tested on: Human immunodeficiency virus 1; assay: Compound was evaluated for potency against Double mutant HIV I84V/V82F strains; assay type: functional
[6] = Solubility in 0.1 N HCl; assay type: physicochemical; conditions: read-out: S

Row | SMILES | Ki [1] | IC90 [2] | IC90 [3] | IC90 [4] | IC90 [5] | solubility [6]
1 | O=C(Nc1nc2ccccc2[nH]1)c1cccc(CN2C(=O)N(Cc3cccc(C(=O)Nc4nc5ccccc5[nH]4)c3)[C@H](Cc3ccc(O)cc3)[C@H](O)[C@@H](O)[C@H]2Cc2ccc(O)cc2)c1 | 0.035 nM | 35 nM |  |  |  | 
2 | CC[C@@H]1[C@H](O)[C@@H](O)[C@@H](CC)N(Cc2cccc(C(=O)Nc3nc4ccccc4[nH]3)c2)C(=O)N1Cc1cccc(C(=O)Nc2nc3ccccc3[nH]2)c1 | 4.5 nM | 570 nM |  |  |  | 
3 | CC(C)C[C@@H]1[C@H](O)[C@@H](O)[C@@H](CC(C)C)N(Cc2cccc(C(=O)Nc3nc4ccccc4[nH]3)c2)C(=O)N1Cc1cccc(C(=O)Nc2nc3ccccc3[nH]2)c1 | 0.3 nM | 59 nM | 20 nM | 26 nM | 12 nM | 
4 | CC[C@@H]1[C@H](O)[C@@H](O)[C@@H](Cc2ccccc2)N(Cc2cccc(C(=O)Nc3nc4ccccc4[nH]3)c2)C(=O)N1Cc1cccc(C(=O)Nc2nc3ccccc3[nH]2)c1 | 0.069 nM | 26 nM |  |  |  | 
5 | Nc1ccc(C[C@@H]2[C@H](O)[C@@H](O)[C@@H](Cc3ccc(N)cc3)N(Cc3cccc(C(=O)Nc4nc5ccccc5[nH]4)c3)C(=O)N2Cc2cccc(C(=O)Nc3nc4ccccc4[nH]3)c2)cc1 | 0.016 nM | 10 nM | 23 nM | 10 nM | 76 nM | 8.3 µg/mL (≈ 9.71 µM)
6 | COc1ccc(C[C@@H]2[C@H](O)[C@@H](O)[C@@H](Cc3ccc(OC)cc3)N(Cc3cccc(C(=O)Nc4nc5ccccc5[nH]4)c3)C(=O)N2Cc2cccc(C(=O)Nc3nc4ccccc4[nH]3)c2)cc1 | 0.026 nM | 19 nM |  |  |  | 
7 | CC(C)C[C@@H]1[C@H](O)[C@@H](O)[C@@H](Cc2ccccc2)N(Cc2cccc(C(=O)Nc3nc4ccccc4[nH]3)c2)C(=O)N1Cc1cccc(C(=O)Nc2nc3ccccc3[nH]2)c1 | 0.038 nM | 10 nM | 9 nM | 10 nM | 82 nM | 160 µg/mL (≈ 202 µM)
8 | CCCCCC[C@@H]1[C@H](O)[C@@H](O)[C@@H](Cc2ccccc2)N(Cc2cccc(C(=O)Nc3nc4ccccc4[nH]3)c2)C(=O)N1Cc1cccc(C(=O)Nc2nc3ccccc3[nH]2)c1 | 0.046 nM | 9 nM | 24 nM | 9 nM | 24 nM | 118 µg/mL (≈ 144 µM)
9 | CCCCCC[C@@H]1[C@H](O)[C@@H](O)[C@@H](CCCCCC)N(Cc2cccc(C(=O)Nc3nc4ccccc4[nH]3)c2)C(=O)N1Cc1cccc(C(=O)Nc2nc3ccccc3[nH]2)c1 | 0.35 nM | 86 nM |  |  |  | 
10 | O=C(Nc1nc2ccccc2[nH]1)c1cccc(CN2C(=O)N(Cc3cccc(C(=O)Nc4nc5ccccc5[nH]4)c3)[C@H](Cc3ccccc3)[C@H](O)[C@@H](O)[C@H]2Cc2ccccc2)c1 |  | 5 nM | 5 nM | 5 nM | 21 nM | 0.05 µg/mL (≈ 0.0606 µM)
11 | O=C(Nc1nc2ccccc2[nH]1)c1cccc(CN2C(=O)N(Cc3cccc(C(=O)Nc4nc5ccccc5[nH]4)c3)[C@H](C3CCCCC3)[C@H](O)[C@@H](O)[C@H]2C2CCCCC2)c1 | 0.29 nM | 14 nM |  |  |  | 
12 | CN(C)c1ccc(C[C@@H]2[C@H](O)[C@@H](O)[C@@H](Cc3ccc(N(C)C)cc3)N(Cc3cccc(C(=O)Nc4nc5ccccc5[nH]4)c3)C(=O)N2Cc2cccc(C(=O)Nc3nc4ccccc4[nH]3)c2)cc1 | 0.038 nM | 8 nM | 8 nM | 8 nM | 22 nM | 13.2 µg/mL (≈ 14.5 µM)
13 | O=C(Nc1nc2ccccc2[nH]1)c1cccc(CN2C(=O)N(Cc3cccc(C(=O)Nc4nc5ccccc5[nH]4)c3)[C@H](Cc3ccc(OCc4ccccc4)cc3)[C@H](O)[C@@H](O)[C@H]2Cc2ccc(OCc3ccccc3)cc2)c1 | 3.7 nM | 125 nM |  |  |  | 
